From patent publication EP4640052A1 (BASF SE, priority 2024, dated 2025)
Where “and” joins values, the source holds several entries; their conditions need not be identical. Identical values can stand only once. Like-named read-outs stand apart in the source and are kept apart here.

Legend:
[1] = test system: Pyricularia oryzae (PYRIOR); test: microbe, parasite or virus in culture; format: cell-based; conditions: for Observed efficacy: single active
Phakopsora pachyrhizi [2] = test: Green house use example 14: protective control of soybean rust on soybeans (PHAKPA F129L P2); format: in vivo; conditions: single compound
[3] = test system: Septoria tritici (SEPTTR); test: microbe, parasite or virus in culture; format: cell-based
Phakopsora pachyrhizi [4] = test: Green house use example 13: curative control of soybean rust on soybeans (PHAKPA F129L K4); format: in vivo
[5] = test system: Pyrenophora teres (PYRNTE), Qol resistant (F129L); test: microbe, parasite or virus in culture; format: cell-based; conditions: for inhibition of growth at 0.016 ppm / inhibition of growth at 0.063 ppm / inhibition of growth at 1 ppm / inhibition of growth at 0.25 ppm: Pyrenophora teres, 168 h, read-out: Observed efficacy
[6] = test system: Puccinia triticina (syn. P. recondita); test: Green house use example 9: curative control of brown rust on wheat (PUCCRT K4); format: in vivo
[7] = test system: Sclerotinia sclerotiorum (SCLESC); test: microbe, parasite or virus in culture; format: cell-based; conditions: for inhibition of growth at 0.016 ppm / inhibition of growth at 0.063 ppm / inhibition of growth at 0.25 ppm / inhibition of growth at 1 ppm: Sclerotinia sclerotiorum, 168 h, read-out: Observed efficacy
[8] = test system: Alternaria solani (ALTESO); test: microbe, parasite or virus in culture; format: cell-based; conditions: for inhibition of growth at 0.016 ppm / inhibition of growth at 0.063 ppm / inhibition of growth at 0.25 ppm / inhibition of growth at 0.004 ppm: Alternaria solani, 168 h, read-out: Observed efficacy
[9] = test system: Blumeria graminis f. sp. tritici; test: Green house use example 11: control of powdery mildew on wheat, sprayed 2 days after inoculation (ERYSGT K2); format: in vivo; conditions: G143A strain, single active
[10] = test system: Puccinia triticina (syn. P. recondita); test: Green house use example 10: preventative control of brown rust on wheat (PUCCRT P10); format: in vivo
Monilinia sp. (MONISP) = test: microbe, parasite or virus in culture; format: cell-based; conditions: Monilinia, 168 h, read-out: Observed efficacy
[11] = test system: Cercospora sojina (CERCSO); format: cell-based
[12] = test system: Corynespora cassiicola (CORYCA), Qol resistant (G143A); SDHI resistant (N75S in SdHC); format: cell-based
Phakopsora pachyrhizi [13] = conditions: in vivo
[14] = test system: Blumeria graminis f. sp. tritici; conditions: in vivo
[15] = Trial 1, single compound, 2 ppm
[16] = Trial 1, single compound, 4 ppm
[17] = Trial 2, single compound, 2 ppm
[18] = Trial 2, single compound, 4 ppm
[19] = Pyricularia oryzae, 168 h, read-out: Observed efficacy
[20] = Trial 1, single compound, 1 ppm
[21] = Zymoseptoria tritici, 168 h, read-out: Observed efficacy
[22] = Trial 2, single compound, 1 ppm
[23] = Trial 3, single compound, 4 ppm

| Structure (SMILES) | Observed efficacy (Phakopsora pachyrhizi [2]; 0.5 ppm) | Observed efficacy (Phakopsora pachyrhizi [4]; [16]) | inhibition of growth at 0.063 ppm [1, 19] | Observed efficacy [6, 20] | Observed efficacy [6, 16] | inhibition of growth at 0.016 ppm [7] | inhibition of growth at 0.063 ppm [7] | inhibition of growth at 0.063 ppm [3, 21] | inhibition of growth at 0.25 ppm [3, 21] | inhibition of growth at 1 ppm [3, 21] | Observed efficacy (Phakopsora pachyrhizi [4]; [23]) | inhibition of growth at 0.016 ppm [8] | inhibition of growth at 0.063 ppm [8] | inhibition of growth at 0.016 ppm [5] | inhibition of growth at 0.063 ppm [5] | inhibition of growth at 0.016 ppm [1, 19] | inhibition of growth at 0.25 ppm [5] | Observed efficacy [6, 22] | other results |
| --- | --- | --- | --- | --- | --- | --- | --- | --- | --- | --- | --- | --- | --- | --- | --- | --- | --- | --- | --- |
| O=C(Nc1ccccc1F)c1ccc(-c2noc(C(F)(F)F)n2)cc1 [flufenoxadiazam, reference compound] | 0 | 31 | – | – | – | – | – | – | – | – | – | – | – | – | – | – | – | – | Observed efficacy ([1]; 0.004 ppm): 2%; Observed efficacy (Phakopsora pachyrhizi [2]; 2 ppm): 63; Observed efficacy [3]: 2 and 3; Observed efficacy (Phakopsora pachyrhizi [4]; [15]): 15; Observed efficacy (Phakopsora pachyrhizi [4]; [17]): 17; Observed efficacy (Phakopsora pachyrhizi [4]; [18]): 34; Observed efficacy [5]: 5 |
| CO/C=C(/C(=O)OC)c1cccc(C)c1CO/N=C(\COC)c1c(F)cc(F)cc1F [I.10, Methyl (E)-3-methoxy-2-[2-[[(Z)-[2-methoxy-1-(2,4,6-trifluorophenyl)ethylidene]-amino]oxymethyl]-3-methyl-phenyl]prop-2-enoate] | – | – | 43% | 3 | 14 | 0% | 3% | 0% | 26% | 55% | 32 | 0% | 0% | 15% | 40% | – | – | – | inhibition of growth at 0.25 ppm [7]: 13%; Observed efficacy (Phakopsora pachyrhizi [4]; [22]): 13; Observed efficacy (Phakopsora pachyrhizi [4]; [18]): 22; inhibition of growth at 0.25 ppm [8]: 0%; Observed efficacy ([9]; 16 ppm): 7; inhibition of growth at 1 ppm [5]: 65% |
| CO/C=C(/C(=O)OC)c1cccc(C)c1CO/N=C(\COC)c1ccc(F)cc1F [I.7, Methyl (E)-2-[2-[[(Z)-[1-(2,4-difluorophenyl)-2-methoxy-ethylidene]amino]oxymethyl]-3-methyl-phenyl]-3-methoxy-prop-2-enoate] | 85 | 41 | 66% | 9 | 67 | 3% | 2% | 0% | 55% | – | 74 | 2% | 32% | 19% | 46% | 27% | 76% | – | Observed efficacy ([10]; wheat, sprayed 10 days before inoculation, single active, 1 ppm): 19; inhibition of growth at 0.063 ppm (Monilinia sp. (MONISP)): 45%; inhibition of growth at 0.25 ppm [7]: 20%; inhibition of growth at 0.004 ppm [8]: 8%; Observed efficacy [11]: 2% and 0% |
| CO/C=C(/C(=O)OC)c1cccc(C)c1CO/N=C(\COC)c1ccccc1 [I.3, Methyl (E)-3-methoxy-2-[2-[[(Z)-(2-methoxy-1-phenyl-ethylidene)amino]oxymethyl]-3-methyl-phenyl]prop-2-enoate] | – | – | – | – | – | 0% | 3% | 21% | 49% | – | – | 32% | 59% | 26% | 43% | 33% | 51% | – | inhibition of growth at 0.063 ppm (Monilinia sp. (MONISP)): 51%; inhibition of growth at 0.25 ppm [7]: 2%; inhibition of growth at 0.016 ppm [3, 21]: 0%; inhibition of growth at 0.004 ppm [8]: 11%; inhibition of growth at 1 ppm [5]: 62% |
| COc1ccnc(C(=O)N[C@@H](C)C(=O)O[C@@H](C)C(c2ccc(F)cc2)c2ccc(F)cc2)c1OC(C)=O [florylpicoxamid, reference compound] | – | – | – | – | – | – | – | – | – | – | – | – | – | – | – | – | – | – | Observed efficacy ([1]; 0.016 ppm): 66%; Observed efficacy [12]: 13%; Observed efficacy [11]: 16%; Observed efficacy [5]: 39 and 21 |
| CO/C=C(/C(=O)OC)c1cccc(Br)c1CO/N=C(\COC)c1c(F)cc(F)cc1F [I.11, Methyl (E)-2-[3-bromo-2-[[(Z)-[2-methoxy-1-(2,4,6-trifluorophenyl)ethylidene]-amino]oxymethyl]phenyl]-3-methoxy-prop-2-enoate] | 59 | 12 | 34% | 1 | 14 | – | 2% | 0% | 14% | 70% | 12 | – | 0% | 6% | 44% | – | 71% | 0 | Observed efficacy [6, 17]: 0; inhibition of growth at 0.001 ppm (Monilinia sp. (MONISP)): 0%; inhibition of growth at 0.004 ppm (Monilinia sp. (MONISP)): 17%; inhibition of growth at 0.25 ppm [8]: 0%; Observed efficacy ([9]; 63 ppm): 14 |
| CC(O)(Cn1cncn1)c1ccc(Oc2ccc(Cl)cc2)cc1C(F)(F)F (racemic) [mefentrifluconazole, reference compound] | – | – | – | – | – | – | – | – | – | – | – | – | – | – | – | – | – | – | Observed efficacy ([1]; 0.063 ppm): 0%; Observed efficacy ([1]; 1 ppm): 53%; Observed efficacy ([6]; 1 ppm): 39; Observed efficacy ([6]; 4 ppm): 54; Observed efficacy [8]: 27; Observed efficacy [5]: 40 and 22 |
| Cn1cc(C(=O)Nc2ccccc2-c2cc(F)c(F)c(F)c2)c(C(F)F)n1 [fluxapyroxad, reference compound] | – | – | – | – | – | – | – | – | – | – | – | – | – | – | – | – | – | – | Observed efficacy ([1]; 1 ppm): 19%; Observed efficacy ([10]; 1 ppm): 42; Observed efficacy ([6]; 1 ppm): 20; Observed efficacy ([6]; 2 ppm): 67 |
| N#Cc1c[nH]cc1-c1cccc2c1OC(F)(F)O2 [fludioxonil, reference compound] | – | – | 59% | – | – | – | 67% | 5% | 5% | 0% | – | 5% | 29% | – | 51% | 35% | – | – | inhibition of growth at 0.004 ppm [1, 19]: 8%; inhibition of growth at 0.25 ppm [1, 19]: 59%; inhibition of growth at 0.004 ppm (Monilinia sp. (MONISP)): 8% |
| CO/C=C(/C(=O)OC)c1cccc(Cl)c1CO/N=C(\COC)c1c(F)cc(F)cc1F [I.9, Methyl-(E)-2-[3-chloro-2-[[(Z)-[2-methoxy-1-(2,4,6-trifluorophenyl)ethylidene]-amino]oxymethyl]phenyl]-3-methoxy-prop-2-enoate] | 59 | 12 | 32% | – | – | – | 11% | 0% | 6% | 60% | 3 | – | 3% | 7% | 44% | – | 74% | 0 | Observed efficacy [6, 17]: 0; inhibition of growth at 0.001 ppm (Monilinia sp. (MONISP)): 17%; inhibition of growth at 0.063 ppm (Monilinia sp. (MONISP)): 42%; inhibition of growth at 0.25 ppm (Monilinia sp. (MONISP)): 76%; inhibition of growth at 1 ppm [7]: 50%; Observed efficacy (Phakopsora pachyrhizi [13]): 60; inhibition of growth at 0.004 ppm [8]: 1% |
| CO/C=C(/C(=O)OC)c1cccc(Cl)c1CO/N=C(\COC)c1ccccc1 [I.1, Methyl-(E)-2-[3-chloro-2-[[(Z)-(2-methoxy-1-phenyl-ethylidene)amino]oxymethyl]-phenyl]-3-methoxy-prop-2-enoate] | 80 | 37 | 64% | 3 | 58 | – | 2% | 0% | 45% | – | 71 | 12% | 29% | 14% | 48% | 25% | 72% | 0 | Observed efficacy [14]: 0; Observed efficacy (Phakopsora pachyrhizi [13]): 61 |
| Cc1nc2c(F)c(F)ccc2cc1Oc1cccc(F)c1C(C)(C)O [ipflufenoquin, reference compound] | – | – | – | – | – | – | – | – | – | – | – | – | – | – | – | – | – | – | Observed efficacy ([1]; 0.004 ppm): 12%; Observed efficacy ([1]; 0.016 ppm): 15%; Observed efficacy ([1]; 0.063 ppm): 12%; Observed efficacy [7]: 4 and 3; Observed efficacy [3]: 48 and 41 and 26; Observed efficacy [12]: 11% |
| CO/C=C(/C(=O)OC)c1cccc(C)c1CO/N=C(\COC)c1ccc(F)cc1 [I.4, Methyl (E)-2-[2-[[(Z)-[1-(4-fluorophenyl)-2-methoxy-ethylidene]amino]oxymethyl]-3-methyl-phenyl]-3-methoxy-prop-2-enoate] | – | – | – | – | – | 0% | 0% | 16% | 43% | – | – | – | 50% | – | 39% | 28% | – | 49 | Observed efficacy ([10]; wheat, sprayed 10 days before inoculation, single active, 2 ppm): 12; inhibition of growth at 1 ppm [7]: 41%; Observed efficacy (Phakopsora pachyrhizi [4]; [15]): 36; inhibition of growth at 1 ppm [5]: 64% |
